Results reported in the supplement of paper PMC10307832.

Columns and labels:
Assay in all cases: relative viability (nuclei count vs DMSO), 5 days (fraction); higher = more cells survive
17-AAG + Palbociclib = compound: C=CCNC1=C2C[C@@H](C)C[C@H](OC)[C@H](O)[C@@H](C)/C=C(\C)[C@H](OC(N)=O)[C@@H](OC)/C=C\C=C(/C)C(=O)NC(=CC1=O)C2=O [17-AAG] + CC(=O)c1c(C)c2cnc(Nc3ccc(N4CCNCC4)cn3)nc2n(C2CCCC2)c1=O [Palbociclib] (partner 0.5 µM)
Outline: (§1)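 The day after seeding in 1536-well plates, lung cancer cell lines were treated by pin tool with a single drug, or with a fixed anchor-drug dose together with five library-drug doses (not always all listed) in √10 steps. After 5 days, a combined fix-and-stain solution (final 0.05% Triton X-100, 1% formaldehyde, 1 ug/ml Hoechst) was added. Nuclei counted on 4× images gave relative viability as treated counts over vehicle counts, reported as the median of duplicate plates.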

17-AAG + Crizotinib = compound: C=CCNC1=C2C[C@@H](C)C[C@H](OC)[C@H](O)[C@@H](C)/C=C(\C)[C@H](OC(N)=O)[C@@H](OC)/C=C\C=C(/C)C(=O)NC(=CC1=O)C2=O [17-AAG] + C[C@@H](Oc1cc(-c2cnn(C3CCNCC3)c2)cnc1N)c1c(Cl)ccc(F)c1Cl [Crizotinib] (partner 1 µM)
Outline: as §1

17-AAG + AZD7762 = compound: C=CCNC1=C2C[C@@H](C)C[C@H](OC)[C@H](O)[C@@H](C)/C=C(\C)[C@H](OC(N)=O)[C@@H](OC)/C=C\C=C(/C)C(=O)NC(=CC1=O)C2=O [17-AAG] + NC(=O)Nc1cc(-c2cccc(F)c2)sc1C(=O)N[C@H]1CCCNC1 [AZD7762] (partner 0.2 µM)
Outline: as §1

17-AAG + Vorinostat = compound: C=CCNC1=C2C[C@@H](C)C[C@H](OC)[C@H](O)[C@@H](C)/C=C(\C)[C@H](OC(N)=O)[C@@H](OC)/C=C\C=C(/C)C(=O)NC(=CC1=O)C2=O [17-AAG] + O=C(CCCCCCC(=O)Nc1ccccc1)NO [Vorinostat] (partner 1 µM)
Outline: as §1

Cell Line | relative viability (17-AAG + Palbociclib; first compound 0.00128 µM) | relative viability (17-AAG + Palbociclib; first compound 0.004048 µM) | relative viability (17-AAG + Palbociclib; first compound 0.0128 µM) | relative viability (17-AAG + Palbociclib; first compound 0.04048 µM) | relative viability (17-AAG + Palbociclib; first compound 0.128 µM) | relative viability (17-AAG + Crizotinib; first compound 0.00128 µM) | relative viability (17-AAG + Crizotinib; first compound 0.004048 µM) | relative viability (17-AAG + Crizotinib; first compound 0.0128 µM) | relative viability (17-AAG + Crizotinib; first compound 0.04048 µM) | relative viability (17-AAG + Crizotinib; first compound 0.128 µM) | relative viability (17-AAG + AZD7762; first compound 0.00128 µM) | relative viability (17-AAG + AZD7762; first compound 0.004048 µM) | relative viability (17-AAG + AZD7762; first compound 0.0128 µM) | relative viability (17-AAG + AZD7762; first compound 0.04048 µM) | relative viability (17-AAG + AZD7762; first compound 0.128 µM) | relative viability (17-AAG + Vorinostat; first compound 0.00128 µM) | relative viability (17-AAG + Vorinostat; first compound 0.004048 µM) | relative viability (17-AAG + Vorinostat; first compound 0.0128 µM) | relative viability (17-AAG + Vorinostat; first compound 0.04048 µM) | relative viability (17-AAG + Vorinostat; first compound 0.128 µM)
201T | 0.364 | 0.351 | 0.353 | 0.372 | 0.35 | 1.04 | 1.07 | 1.02 | 0.886 | 0.805 | 0.626 | 0.543 | 0.459 | 0.258 | 0.261 | 0.932 | 0.945 | 0.858 | 0.55 | 0.252
A549 |  |  |  |  |  | 0.666 | 0.372 | 0.0579 | 0.0609 | 0.0363 |  |  |  |  |  |  |  |  |  | 
A-427 | 0.554 | 0.506 | 0.54 | 0.354 | 0.291 | 1.03 | 0.872 | 0.899 | 0.881 | 0.798 | 0.819 | 0.798 | 0.618 | 0.268 | 0.234 | 0.875 | 0.849 | 0.867 | 0.373 | 0.298
ABC-1 | 0.701 | 0.805 | 0.772 | 0.79 | 0.602 | 1.19 | 1.08 | 1.04 | 1.3 | 0.898 | 0.902 | 0.726 | 0.844 | 0.835 | 0.498 | 1.15 | 1.15 | 1.21 | 1.06 | 0.724
BEN | 0.466 | 0.484 | 0.54 | 0.491 | 0.337 | 0.896 | 0.821 | 0.929 | 0.739 | 0.237 | 0.692 | 0.891 | 0.648 | 0.5 | 0.392 | 0.673 | 0.586 | 0.664 | 0.667 | 0.464
CAL-12T | 0.499 | 0.364 | 0.486 | 0.191 | 0.167 | 0.676 | 0.775 | 0.646 | 0.778 | 0.255 | 0.655 | 0.553 | 0.608 | 0.393 | 0.233 | 0.796 | 0.729 | 0.671 | 0.65 | 0.282
COR-L23 | 0.278 | 0.338 | 0.336 | 0.198 | 0.0966 | 0.725 | 0.614 | 0.749 | 0.339 | 0.0896 |  |  |  |  |  | 0.489 | 0.408 | 0.47 | 0.319 | 0.109
COR-L 105 | 0.431 | 0.389 | 0.406 | 0.356 | 0.384 | 0.961 | 0.9 | 0.793 | 0.568 | 0.661 |  |  |  |  |  | 0.876 | 0.983 | 0.783 | 0.728 | 0.439
Calu-6 |  |  |  |  |  | 0.842 | 0.77 | 0.775 | 0.202 | 0.109 |  |  |  |  |  |  |  |  |  | 
ChaGo-K-1 | 0.956 | 0.922 | 0.768 | 0.938 | 0.703 | 1.11 | 1.07 | 1.03 | 0.628 | 0.293 | 0.843 | 0.871 | 0.861 | 0.449 | 0.217 | 0.749 | 0.776 | 0.691 | 0.49 | 0.214
